Reference: article PMC12959137 (Antimicrobial Agents and Chemotherapy, 2026)

Molecular target: KPC-2 (Klebsiella pneumoniae, UniProt Q9F663)
Format: biochemical
Conditions: read-out: KM for nitrocefin hydrolysis (used in Morrison fit)
Method: Initial velocities (v₀) were determined by fitting the reaction progress curves by linear regression. These velocities were then plotted against buffer concentrations and analyzed using the Morrison equation to determine the inhibition constant (Ki) ([33]). […] All data analysis and curve fitting were performed using GraphPad Prism (version 10.3.1).

Sequence of KPC-2 (Q9F663 25-293 limits assumed): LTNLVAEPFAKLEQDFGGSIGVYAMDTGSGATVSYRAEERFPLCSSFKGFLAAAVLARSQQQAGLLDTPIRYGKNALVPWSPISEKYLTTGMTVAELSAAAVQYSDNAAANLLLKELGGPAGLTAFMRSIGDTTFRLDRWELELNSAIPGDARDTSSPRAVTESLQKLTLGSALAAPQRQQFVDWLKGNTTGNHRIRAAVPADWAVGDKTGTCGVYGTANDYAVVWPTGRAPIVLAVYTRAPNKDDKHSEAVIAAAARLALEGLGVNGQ

Compound: O=C(Cc1cccs1)N[C@@H]1C(=O)N2C(C(=O)O)=C(/C=C/c3ccc([N+](=O)[O-])cc3[N+](=O)[O-])CS[C@H]12 [nitrocefin]
- Km: 45 µM
